Data reported in paper PMC10925993, “6-Aryl-4-cycloamino-1,3,5-triazine-2-amines: synthesis, antileukemic activity, and 3D-QSAR modelling” (RSC Advances, 2024).
Entries after “also recorded” stand apart in the source; their conditions may differ. Where two headings read alike, the source gives them in different places.

How the values were obtained:
[1] = test system: Jurkat T cells; assay: Inhibition of Jurkat T cell growth (GI50), MTS assay; format: cell-based; settings: Homo sapiens
Method: These compounds were selected for further testing to estimate their 50% growth inhibition (GI50) value. Standard antileukemic drugs mercaptopurine, methotrexate and cytarabine were chosen as positive controls.
(§1) An MTS (3-(4,5-dimethylthiazol-2-yl)-5-(3-carboxymethoxyphenyl)-2-(4-sulfophenyl)-2H-tetrazolium inner salt) assay[20] was used to assess the leukemic cell viability. Jurkat T cells (human leukemic T cell, clone E6-1) from American Type Culture Collection (ATCC) were cultured in RPMI-1640 medium (Nacalai Tesque, Japan) supplemented with 10% v/v fetal bovine serum (FBS) (Biosera, France). The cells were maintained at 37 °C in a humidified 5% CO2 incubator (Thermo Fisher, USA). A total of 2 × 10^3 cells per 100 μL cell culture media were seeded into each well of a 96-well plate and incubated for 24 h. Then, tested compounds or reference drugs [6-mercaptopurine (Merck Millipore, Germany), methotrexate (Merck Millipore, Germany) and cytarabine (Merck Millipore, Germany)] were added, followed by incubation for 72 h. After that, a mixture of MTS (Sigma Aldrich, USA) and phenazine methosulfate (PMS) (Nacalai Tesque, Japan) were added to each well, followed by another incubation for 1 h to 4 h at 37 °C. The absorbance in each well was measured at 490 nm using a microplate reader (Tecan NanoQuant Infinite M200 Pro, Austria). The percentage of cell viability was estimated by comparing absorbance in wells with the treated and untreated (vehicle control) cells using the following formula: ODtreated/ODuntreated × 100%. All experiments were performed in triplicate and repeated in three independent experiments. The GI50 values were calculated using sigmoidal concentration-response curves generated by the GraphPad Prism 8 program.[21]

[2] = test system: Jurkat T cells; assay: Antiproliferative screening at 10 μM, MTS assay; format: cell-based, human; settings: Homo sapiens; Jurkat T cells, 10 μM, 72 h after treatment, MTS; mean of three independent experiments; read-out: Cell viability (%)
Method: The Jurkat T cell line was chosen for its reliability as a model for chemotherapeutic studies, particularly in T-cell leukemia.[13]
as §1, with “Jurkat T cells (human leukemic T cell, clone E6-1) from American Type Culture Collection (ATCC) were cultured in RPMI-1640 medium (Nacalai Tesque, Japan) supplemented with 10% v/v fetal bovine serum (FBS) (Biosera, France). The cells were maintained at 37 °C in a humidified 5% CO2 incubator (Thermo Fisher, USA).” left out, “After that, a mixture of MTS (Sigma Aldrich, USA) and phenazine methosulfate (PMS) (Nacalai Tesque, Japan) were added to each well, followed by another incubation for 1 h to 4 h at 37 °C.” left out

[3] = test system: Jurkat T cells; assay: AO/PI double fluorescence staining, cell morphology study; format: cell-based, human; settings: treatment at GI50 concentration, 24 h, 48 h, 72 h
Method: The GI50 value for this compound was selected as the treatment concentration. […] Moreover, some Jurkat T cells underwent late stages of apoptosis as shown by the reddish-orange stain (Fig. 4C). Similar events also occurred 48 h and 72 h after the treatment but with a lower number of viable cells (Fig. 4D and E).
Fluorescence microscopy was applied to portray apoptotic and necrotic changes in Jurkat T cells using AO/PI fluorescence staining.[23] The Jurkat T cells were cultured as described above. A total of 5 × 10^5 cells (based on the doubling time for the cell line) per 1 mL cell culture media were seeded into each well of a 6-well plate (Biologix, USA) and incubated for 24 h. […] The fluorescence dye containing AO (10 μg mL^−1, 16 μL) and PI (10 μg mL^−1, 13 μL) was prepared immediately prior to use. The treated cells, positive and negative controls containing dyes were examined immediately under an inverted UV-fluorescent microscope (Nikon Ti2-E, Japan) to prevent fluorescence dyes from fading. The images of viable cells and non-viable cells after treatment were taken by Nikon Ti2-E software. The observations were repeated in three independent experiments.

[4] = GI50 against Jurkat T cells converted to negative logarithmic scale, read-out: Experimental pGI50 (converted)
[5] = concentration required to inhibit Jurkat T cell growth by 50%, 72 h, MTS, mean of three independent experiments, read-out: GI50 ± SEM

Cc1cccc(-c2nc(N)nc(N3CCc4ccccc4C3)n2)c1 [9{6,5}, 6-(3-Methylphenyl)-4-(3,4-dihydroisoquinolin-2(1H)-yl)-1,3,5-triazine-2-amine]
GI50 [1, 4]: 1150 nM
GI50 [1, 5]: 1140 ± 130 nM
melting point: 145 to 146 °C
viability at 10 µM [2]: 2%

Cc1ccc(-c2nc(N)nc(N3CCc4ccccc4C3)n2)cc1 [9{6,6}, 6-(4-Methylphenyl)-4-(3,4-dihydroisoquinolin-2(1H)-yl)-1,3,5-triazine-2-amine]
GI50 [1, 4]: 1780 nM
GI50 [1, 5]: 1790 ± 580 nM
melting point: 166 to 167 °C
viability at 10 µM [2]: 4%

CC(C)(C)c1ccc(-c2nc(N)nc(N3CCc4ccccc4C3)n2)cc1 [9{6,7}, 6-[4-(tert-Butyl)phenyl]-4-(3,4-dihydroisoquinolin-2(1H)-yl)-1,3,5-triazine-2-amine]
GI50 [1, 4]: 2450 nM
GI50 [1, 5]: 2430 ± 570 nM
melting point: 162 to 164 °C
viability at 10 µM [2]: 1%

COc1ccc(-c2nc(N)nc(N3CCc4ccccc4C3)n2)cc1 [9{6,9}, 6-(4-Methoxyphenyl)-4-(3,4-dihydroisoquinolin-2(1H)-yl)-1,3,5-triazine-2-amine]
GI50 [1, 4]: 29500 nM
GI50 [1, 5]: 29600 ± 2200 nM
melting point: 165 to 166 °C
viability at 10 µM [2]: 14%

Nc1nc(-c2ccc(C(F)(F)F)cc2)nc(N2CCc3ccccc3C2)n1 [9{6,11}, 6-[4-(Trifluoromethyl)phenyl]-4-(3,4-dihydroisoquinolin-2(1H)-yl)-1,3,5-triazine-2-amine]
GI50 [1, 4]: 3240 nM
GI50 [1, 5]: 3230 ± 160 nM
melting point: 181 to 182 °C
viability at 10 µM [2]: 3%

Nc1nc(-c2ccc(OC(F)(F)F)cc2)nc(N2CCc3ccccc3C2)n1 [9{6,12}, 6-[4-(Trifluoromethoxy)phenyl]-4-(3,4-dihydroisoquinolin-2(1H)-yl)-1,3,5-triazine-2-amine]
GI50 [1, 4]: 1170 nM
GI50 [1, 5]: 1180 ± 220 nM
melting point: 119 to 120 °C
viability at 10 µM [2]: 3%

Nc1nc(-c2cccc(Oc3ccccc3)c2)nc(N2CCc3ccccc3C2)n1 [9{6,13}, 4-(3,4-Dihydroisoquinolin-2(1H)-yl)-6-(3-phenoxyphenyl)-1,3,5-triazine-2-amine]
GI50 [1, 4]: 1550 nM
GI50 [1, 5]: 1540 ± 660 nM
melting point: 128 to 129 °C
viability at 10 µM [2]: 4%

Nc1nc(-c2cccc(OCc3ccccc3)c2)nc(N2CCc3ccccc3C2)n1 [9{6,14}, 6-(3-(Benzyloxy)phenyl)-4-(3,4-dihydroisoquinolin-2(1H)-yl)-1,3,5-triazine-2-amine]
GI50 [1, 4]: 6610 nM
GI50 [1, 5]: 6540 ± 340 nM
melting point: 143 to 144 °C
viability at 10 µM [2]: 23%

COc1ccc(-c2nc(N)nc(N3CCc4ccccc4C3)n2)cc1OC [9{6,16}, 6-(3,4-Dimethoxyphenyl)-4-(3,4-dihydroisoquinolin-2(1H)-yl)-1,3,5-triazin-2-amine]
GI50 [1, 4]: 11700 nM
GI50 [1, 5]: 11600 ± 2120 nM
melting point: 159 to 160 °C
viability at 10 µM [2]: 23%

Nc1nc(-c2ccc(F)cc2)nc(N2CCc3ccccc32)n1 [9{7,3}, 6-(4-Fluorophenyl)-4-(indolin-1-yl)-1,3,5-triazine-2-amine]
GI50 [1, 4]: 1910 nM
GI50 [1, 5]: 1890 ± 480 nM
melting point: 195 to 196 °C
viability at 10 µM [2]: 35%

CN(C)c1ccc(-c2nc(N)nc(N3CCc4ccccc43)n2)cc1 [9{7,8}, 6-[4-(N,N-Dimethylamino)phenyl]-4-(indolin-1-yl)-1,3,5-triazine-2-amine]
GI50 [1, 4]: 2140 nM
GI50 [1, 5]: 2120 ± 970 nM
melting point: 226 to 227 °C
viability at 10 µM [2]: 30%

Nc1nc(-c2ccc(OCc3ccccc3)cc2)nc(N2CCc3ccccc32)n1 [9{7,15}, 6-(4-(Benzyloxy)phenyl)-4-(indolin-1-yl)-1,3,5-triazine-2-amine]
GI50 [1, 4]: 22900 nM
GI50 [1, 5]: 23070 ± 80 nM
melting point: 188 to 189 °C
viability at 10 µM [2]: 32%

COc1cc(-c2nc(N)nc(N3CCc4ccccc43)n2)cc(OC)c1OC [9{7,17}, 6-(3,4,5-Trimethoxyphenyl)-4-(indolin-1-yl)-1,3,5-triazine-2-amine]
GI50 [1, 4]: 6760 nM
GI50 [1, 5]: 6730 ± 430 nM
melting point: 199 to 200 °C
viability at 10 µM [2]: 10%

Nc1nc(-c2cccs2)nc(N2CCc3ccccc32)n1 [9{7,18}, 4-(Indolin-1-yl)-6-(2-thienyl)-1,3,5-triazine-2-amine]
GI50 [1, 4]: 6030 nM
GI50 [1, 5]: 6030 ± 640 nM
melting point: 163 to 164 °C
viability at 10 µM [2]: 20%

Nc1nc(-c2cccc(F)c2)nc(N2CCc3ccccc3C2)n1 [Compound 9{6,2}, 6-(3-Fluorophenyl)-4-(3,4-dihydroisoquinolin-2(1H)-yl)-1,3,5-triazine-2-amine]
GI50 [1, 4]: 1020 nM
GI50 [1, 5]: 1020 ± 300 nM
Jurkat T cell morphology, type of cell death (AO/PI staining) [3]: necrotic type of cell death; also recorded: probably involved aponecrosis; also recorded: triggered the aponecrosis
viability at 10 µM [2]: 1%

CN(Cc1cnc2nc(N)nc(N)c2n1)c1ccc(C(=O)N[C@@H](CCC(=O)O)C(=O)O)cc1 [Methotrexate, methotrexate, reference compound]
GI50 [1, 5]: 370 ± 30 nM
Jurkat T cell morphology, type of cell death (AO/PI staining) [3]: induced the late apoptotic morphological changes
